The values below come from patent US11406633B2, “Dosing schedule of a Wnt inhibitor and an anti-PD-1 antibody molecule in combination” (Novartis AG, priority 2017, dated 2022).

For data set [1] the following is noted: determined within the CPDR001X2101 clinical study; cited from earlier work.
Data set [2] can be described thus: animal toxicity studies in rat. From the text:
(§1) Recently, the secreted glycoproteins R-spondins 1-4 (RSPO1-4) have emerged as important activators of canonical Wnt signaling. RSPOs bind to leucine-rich repeat-containing G-protein-coupled receptors (LGR4-6) and the transmembrane E3 ubiquitin ligases RING finger 43/zinc and RING finger 3 (RNF43/ZNRF3), forming a ternary complex (Chen et al. Genes Dev; 2013, 27, 1345). RNF43/ZNRF3 antagonize Wnt signaling by promoting the turnover of Fz and LRP6 (Hao et al. Nature 2012, 485 (7397), 195-200; Koo et al. Nature, 2012, 488 (7413), 665). Binding of RSPO induces the endocytosis of RNF43/ZNRF3, thereby increasing levels of membrane-bound Fz and LRP6 and enhancing Wnt ligand-mediated signaling. In order to activate signaling within target cells, Wnt proteins must be properly secreted and transported across the extracellular space. Porcupine is a membrane-bound-O-acyltransferase (MBOAT) that adds palmitoyl groups to Wnt proteins (Takada et al. Dev. Cell 2006, 11, 791). Mutations in components of the canonical Wnt pathway such as APC and β-catenin play important roles in the pathogenesis of some malignancies and those genetic lesions affect upstream Wnt pathway regulation. The inhibition of the Wnt pathway signaling was recently associated with several drawbacks such as side effects and dose limiting toxicities. Such drawbacks were limiting the anti-tumor efficacy of Wnt inhibitors. Separately, activation of the Wnt pathway was linked to resistance to immunotherapy and offers a mechanism by which tumors can evade immune detection and decrease clinical benefit to check-point inhibitors (Spranger et al. Nature 2015, 523, 231). For example, the Wnt inhibitor of the present disclosure, namely 2-(2′,3-dimethyl-[2,4′-bipyridin]-5-yl)-N-(5-(pyrazin-2-yl)pyridin-2-yl)acetamide was tested and the levels of pLRP6 and AXIN2qPCR were analyzed in biopsies of skin and tumors.

A short description of data set [3]: clinical study of the Wnt inhibitor: bone events. Type of data set: in vivo, human. The following applies: patients. From the text:
The Wnt signaling pathway is required for development and survival of osteoblasts (involved in bone formation) and negatively regulates osteoclasts (involved in bone resorption). […] In addition, the short intermittent dosing of Wnt inhibitor was sufficient to result in upregulation of the activated dendritic cells signature. This is relevant because this subtype of dendritic cell is important for recruiting and activating T cells for an anti-tumoral response. Inhibition of the Wnt signaling in cancer treatment improves the response rate to PD-1 inhibition through release of inhibition of dendritic cells and T-cell activation. Overall, the combination of the Wnt inhibitor (i) and an anti-PD-1 antibody molecule, wherein Wnt inhibitor is administered only at the beginning of the treatment cycle for, e.g. 8 or 15 days, can show mutually coordinated effect of both compounds and offer better efficacy and […] safety profile compared to, for example, use of the Wnt inhibitor (i) alone.

The test system of data set [4] is tumor. Kind of data set: other single-agent studies: cytotoxic gene signature and tumor efficacy. The class given is in vivo. The following applies: alone as a single agent.
Text: as §1, with “Mutations in components of the canonical Wnt pathway such as APC and β-catenin play important roles in the pathogenesis of some malignancies and those genetic lesions affect upstream Wnt pathway regulation. The inhibition of the Wnt pathway signaling was recently associated with several drawbacks such as side effects and dose limiting toxicities. Such drawbacks were limiting the anti-tumor efficacy of Wnt inhibitors. Separately, activation of the Wnt pathway was linked to resistance to immunotherapy and offers a mechanism by which tumors can evade immune detection and decrease clinical benefit to check-point inhibitors (Spranger et al. Nature 2015, 523, 231).” left out

A short description of data set [5]: animal toxicity studies in dog. The following applies: dogs.
For data set [6], the system named is tumor-immune microenvironment / WNT pathway (AXIN2). Kind of data set: NanoString gene expression of paired tumor biopsies (screening vs on treatment), immune gene signatures fitted against AXIN2 change. The following applies: for relationship between AXIN2 inhibition and increased expression of the dendritic cell signature (CD103+) / relationship between AXIN2 inhibition and increased expression of the chemokine signature (CD8+ T-cell recruitment): log 2 fold-change screening to on-treatment, 9 paired samples; for relationship between AXIN2 inhibition and increased expression of the dendritic cell signature (CD103+): 15 days of exposure; for relationship between AXIN2 inhibition and increased expression of the chemokine signature (CD8+ T-cell recruitment): about 15 days of exposure. Type of data set: in vivo, human. From the text: NanoString measures gene expression for a selected panel of up to about 1000 genes. This is executed using uniquely barcoded probes that hybridize directly to target RNAs (ribonucleic acids). The RNA-probe hybrids are then run out on a gel to linearize the barcodes. These barcodes are then counted and then normalized using an internally developed pipeline. […] Tumors were fixed in formalin and embedded in paraffin (FFPE) or directly placed in RNA Later. These samples were transferred to Genoptix where RNA was isolated for real time qPCR analyses of the pharmacodynamics (PD) marker AXIN2. Remnant RNA was transferred to the assay research laboratory (ARL) where gene expression was profiled using (2016) NanoString pan-cancer immune profiling panel as well as a custom design panel of immune-related genes. Gene expression was normalized using methods recommended by NanoString, with the exception that samples were normalized within specific indications (e.g. melanoma or pancreatic cancer samples were normalized separately) and housekeeping genes were selected using the geNorm stability metric [PMID: 12184808]. Certain genes overlapped between both panels, which we used to assess variability and other quality control parameters. […] The count data described herein was normalized according to the methods recommended by NanoString with one exception, namely that the samples were normalized within the specific indications as described herein and approximately 40 housekeeping genes (defined on the NanoString website for their commercially available cancer immune panel, 2016) were used for biological normalization across samples. Gene signatures were used before to probe the data for phenotypic changes in the tumor-immune microenvironment. It has been previously shown that in genetically engineered mice with activated WNT signaling the dendritic cells and T-cells in the tumor microenvironment are inhibited; however, it has not been shown that this effect is reversible. Therefore, our objective was to use gene expression analyses in samples from the patients treated with the Wnt inhibitor to determine the extent to which the inhibitory effects of WNT signaling in the tumor on the proximal immune cells can be reversed by pharmacological inhibition of the WNT pathway. To understand whether the Compound of Formula (I) has effects on the tumor immune microenvironment, we looked at the relationships between immune gene expression and the PD marker AXIN2. By using this marker, we can understand the extent to which the WNT pathway has been inhibited in a given tumor. Instead of focusing on individual genes, we used the geometric average expression of sets of genes (gene signatures) that describe a particular pathway or cellular function. One gene signature is a chemokine signature that is associated with recruitment of CD8+ T-cells [PMID: 19293190] and other signature is associated with activated CD103+ dendritic cells [PMID: 25970248]. Not every subject presented with a strong inhibition of the WNT pathway as evidenced by the fold-changes observed in AXIN2 expression. […] These dendritic cells, when stimulated, function to recruit T-cells to the tumor. Importantly, this observation was made after 15 days of exposure to the Wnt inhibitor, which supported that intermittent dosing of the Compound of Formula (I) could be combined with a checkpoint inhibitor to stimulate an anti-tumor immune response in the context of tumors that previously had lacked immune infiltrate. […] The changes in AXIN2 expression were fitted by linear model to immune signature changes. […] Both are in log 2 scale. A positive value indicates an increase in the average expression of the genes in a given signature or in AXIN2. […] Second, a relationship between interferon gamma (or type II interferon) and AXIN2 inhibition was observed. Interferon gamma is typically expressed by CD8+ T-cells. […]

Data set [7] concerns Wnt pathway. Kind of data set: pLRP6 and AXIN2 qPCR levels in biopsies of skin and tumors after treatment. The class given is in vivo, human. The following applies: post-treatment skin sample biopsies.
Text: as §1, with “Mutations in components of the canonical Wnt pathway such as APC and β-catenin play important roles in the pathogenesis of some malignancies and those genetic lesions affect upstream Wnt pathway regulation. The inhibition of the Wnt pathway signaling was recently associated with several drawbacks such as side effects and dose limiting toxicities. Such drawbacks were limiting the anti-tumor efficacy of Wnt inhibitors. Separately, activation of the Wnt pathway was linked to resistance to immunotherapy and offers a mechanism by which tumors can evade immune detection and decrease clinical benefit to check-point inhibitors (Spranger et al. Nature 2015, 523, 231).” left out
Background: Quantitative PCR measures a nucleic acid by following its amplification.

For data set [8] the following is noted: dog, in vivo.

Where two headings read alike, the source gives them in different places.

For the compound “PDR001: anti-PD-1 antibody molecule with VH and VL CDR sequences of BAP049-Clone-E, described in PCT/CN2016/099494”, the RP2D result in data set [1] was “dose of 400 mg Q4W is the RP2D determined within the CPDR001X2101”.

On to `Cc1cc(-c2ncc(CC(=O)Nc3ccc(-c4cnccn4)cn3)cc2C)ccn1` [Compound of Formula (I), 2-(2′,3-dimethyl-[2,4′-bipyridin]-5-yl)-N-(5-(pyrazin-2-yl)pyridin-2-yl)acetamide], for which, in data set [2] (rat studies), the trabeculae entry is “decrease in trabeculae”. In data set [2] (rat, in vivo), the “toxicities (organs affected)” value is “toxicities in gastrointestinal (GI) tract, bones and teeth”. Also, in data set [2] (rats), the “effects on bone marrow” value is “secondary effects”. Besides, in data set [3], the bone fractures result is given as “some patients experienced bone fractures”. Moreover, in data set [4], the cytotoxic gene signature result is recorded as “increased” and the tumor efficacy entry is “lack of tumor efficacy”. The effects on kidneys result in data set [5] is reported as “secondary effects”. Further, in data set [6] (after 15 days of exposure), the “surrounding dendritic cell population on pharmacological inhibition of the WNT pathway” value is given as “concomitant stimulation”. Also, in data set [6], the “relationship between AXIN2 inhibition and increased expression of the dendritic cell signature (CD103+)” value was “fairly linear relationship”; the “relationship between AXIN2 inhibition and increased expression of the chemokine signature (CD8+ T-cell recruitment)” value is listed as “fairly linear relationship”. In addition, in data set [6] (listed as Wnt inhibitor (i)), the “relationship between AXIN2 inhibition and increased expression of the dendritic cell signature (CD103+)” value was “fairly linear relationships”; the “relationship between AXIN2 inhibition and increased expression of the chemokine signature (CD8+ T-cell recruitment)” value is given as “fairly linear relationships”. For the same compound, the “relationship between AXIN2 inhibition and increased expression of the chemokine signature (CD8+ T-cell recruitment)” value in data set [6] (listed as WNT inhibitor (i)) is “linear relationship”. Further, in data set [6] (log 2 scale, FIG. 4), the “relationship between AXIN2 inhibition and T-regulation (T-reg) signature” value was “modest inverse relationship”; the “relationship between AXIN2 inhibition and mast cell signature” value is listed as “modest inverse relationship”; the “relationship between type I interferon signature and AXIN2 inhibition” value is “weak relationship”. For the same compound, in data set [6] (patient tumor biopsies), the “immune cell infiltrates in the tumor-immune microenvironment” value is “increasing immune cell infiltrates” and the “inhibition of CD103+ dendritic cells” value was “alleviating the inhibition of CD103+ dendritic cells”. For the same compound, in data set [6] (patients, Wnt inhibitor alone), the “immune signatures in tumors” value was “changes in immune signatures in tumors”. Moreover, the “activated dendritic cells signature” value in data set [6] (short intermittent dosing) is “upregulation”. In data set [7], the “level of AXIN2 (qPCR)” value is on record as “inhibited” and the “level of pLRP6” value is given as “inhibited”. Also, in data set [8], the “toxicities (organs affected)” value is “toxicities in gastrointestinal (GI) tract, bones and teeth”.
